Source: patent US8497267B2, “Method for treating a sleep disorder with a dosage form of besylate salts of zopiclone or eszopiclone” (Sunovion Pharmaceuticals Inc., priority 2007, dated 2013)

Experiments:
[1] = Aqueous solubility (24 hour equilibrated suspension in water, HPLC); assay type: physicochemical; details: for pH measured at saturation: saturated aqueous solution
Protocol: The aliquot was diluted and analyzed by HPLC (Waters). The data was compared to a standard curve generated from a set of solutions of known concentrations. The standard curve and the samples were analyzed using a HPLC using the following conditions: • Column: Symmetry C-18, 5 um, 15 cm×3.9 mm (Waters) • Mobile Phase: 0.05 M KH2PO4—0.01M Hexanesulfonic Acid/THF (1000:125) (Apparent pH 5.0) • Column Temp: 20-30° C. • Flow Rate: 1.0 mL/min • Wavelength: 305 nm • Run Time: 15 min (zopiclone retention time is 9.5-10 min)

[2] = Intrinsic dissolution, USP 28 method <1087>; assay type: physicochemical; details: isotonic 50 mM acetate (pH 4.5) buffer at 37° C., 50 rpm; for Intrinsic dissolution Average: average of Run 1 and Run 2
Protocol: The intrinsic dissolution (Table 3) was determined using USP 28 method <1087> (United States Pharmacopeia, The National Formulary, USP 28, 28th edition, Rockville, […]., 2005). Preparation of each test sample was performed as per USP 28 method <1087> by weighing and transferring the material to the die cavity and compressing for 1 minute at the minimum compression pressure necessary to form a nondisintegrating compacted pellet. The dissolution media used was isotonic 50 mM acetate buffer (pH 4.5) at 37° C. and speed was set at 50 rpm. Each run was halted at 5 min, irrespective of the percent dissolved. Each salt was run in duplicate.

[3] = water, equilibrated 24 hour at ambient

Structure (SMILES)	pH measured at saturation [1]	solubility thermodynamic at 24 h [1, 3]	Intrinsic dissolution Run 1 [2]	Intrinsic dissolution Run 2 [2]	Intrinsic dissolution Average [2]	Solubility [1, 3]
CN1CCN(C(=O)O[C@H]2c3nccnc3C(=O)N2c2ccc(Cl)cn2)CC1.O=S(=O)(O)c1ccccc1 [Besylate, (S)-Zopiclone Besylate]	4.4	34 mg/mL	3.3 mgA/cm^2/min	2.6 mgA/cm^2/min	2.9 mgA/cm^2/min	–
CN1CCN(C(=O)O[C@H]2c3nccnc3C(=O)N2c2ccc(Cl)cn2)CC1 [Free base, (S)-(6-(5-chloro-2-pyridyl)-5-[(4-methyl-1-piperazinyl)carbonyloxy]-7-oxo-6,7-dihydro-5H-pyrrolo[3,4-b]pyrazine)]	7.6	–	0.6 mgA/cm^2/min	0.5 mgA/cm^2/min	0.5 mgA/cm^2/min	0.2^1 mgA/mL
